pIC50: −log10 of the molar value.
Molecular target: T1, Human type-X sPLA2 (Homo sapiens, UniProt O15496)
T1 construct: made in house; host or cells: CHO cells, stably transfected with a pSVL expression vector; culture supernatant used as the enzyme source
T1 sequence (O15496 43-165): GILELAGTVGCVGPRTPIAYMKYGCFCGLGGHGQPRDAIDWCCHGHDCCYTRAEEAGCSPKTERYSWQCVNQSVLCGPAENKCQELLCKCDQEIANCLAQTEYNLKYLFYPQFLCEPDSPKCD
Experiment: type-X sPLA2 inhibition test (chromogenic assay, diheptanoylthio PC)
Format: biochemical
Conditions: diheptanoylthio PC 1 mM, Triton X-100 0.3 mM, 30 min at 40° C., absorbance at 405 nm
Excerpt: cDNA sequence encoding human type-X sPLA2 (Cupillard et al., J. Biol. Chem, 1997, 272, 15745-15752) was inserted into the downstream region of the promoter of pSVL SV40 Late Promoter Expression Vector (Amersham Pharmacia Biotech Inc.) that is an expression vector for mammalian cells. The obtained expression vector was transfected into the host CHO cells with a LipofectAMINE reagent (Gibco BRL Inc.) according to the manufacture's instruction to obtain the CHO cells stably expressing human type-X sPLA2. The transfected cell was cultured in A-MEM medium containing 10% fetal calf serum for 3 days and its culture supernatant was used for the measurement of each enzyme activity.
In order to identify and evaluate an inhibitor of type-X sPLA2, the following chromogenic assay is utilized. This assay has been applied for high volume screening using a 96-well microtiterplate. A general explanation for this assay is described in “Analysis of Human Synovial Fluid Phospholipase A2 on Short Chain Phosphatidylcholine-Mixed Micelles: Development of a Spectrophotometric Assay Suitable for a Micortiterplate Reader” (Analytical Biochemistry, 204, pp 190-197, 1992 by Laure. J. Reynolds. Lori L. Hughes and Edward A. Dennis.
Human type-X sPLA2 was incubated (30 min at 40° C. (15 μl/well)) with diheptanoylthio PC (1 mM) in the presence of Triton X-100 (0.3 mM) and 5,5′-dithiobis(2-nitrobenzoic acid) (125 μM) in Tris-HCl buffer (25 mM, pH 7.5) containing CaCl2 (10 mM), KCl (100 mM), and bovine serum albumin (1.0 mg/mL). The changes in the absorbance at 405 nm were measured and the inhibition activities were calculated.

| Structure (SMILES) | pIC50 |
| --- | --- |
| CCc1c(C(=O)C(N)=O)c2c(OCC(=O)O)nc(C)cn2c1Cc1cccc(-c2ccccc2)c1 [Compound 1] | 8.00 |
| CCc1c(C(=O)C(N)=O)c2c(OCC(=O)O)nc(C)cn2c1Cc1ccccc1Cc1ccccc1 [Compound 2] | 8.00 |
| CCc1c(C(=O)C(N)=O)c2c(OCC(=O)O)nc(-c3ccccc3)cn2c1Cc1ccccc1 [Compound 3] | 8.30 |
| CCCc1c(C(=O)C(N)=O)c2c(OCC(=O)O)nc(C)cn2c1Cc1ccccc1 [Compound 4] | 7.57 |
| CCCc1c(C(=O)C(N)=O)c2c(OCC(=O)O)nc(C)cn2c1CC1CCCCC1 [Compound 5] | 7.92 |
| CCc1c(C(=O)C(N)=O)c2c(OCC(=O)O)nc(C3CCCCC3)cn2c1Cc1ccccc1 [Compound 16] | 8.15 |
| CCc1c(C(=O)C(N)=O)c2c(OCC(=O)NS(=O)(=O)c3ccccc3)cccc2n1Cc1ccccc1 [Compound 18] | 7.80 |
